From patent publication US6630449B2, “Method for reducing the effect of nicotine addiction and dependancy” (priority 2000, dated 2003)
Where two headings read alike, the source gives them in different places.

Legend:
[1] = test system: smokers (craving for nicotine); details: cited from earlier work; for time after first administration at which the effect starts to wear off / duration of nicotine craving relief: after injection
[2] = test system: smoker (craving for nicotine); test: Treatment of smokers with corticotrophin injection to reduce craving for nicotine (case examples); assay type: in vivo, human
Source text: Referring to the FIG. a suitable and preferred process for the treatment of smokers includes nutritional and relaxant supplements, corticotrophin administration, and counseling. On day one, the smoker comes into a clinic for orientation 10. At the time of the first office visit, a medical history is taken and a physical given 12 is taken by the physician, and a determination is made as to whether a given smoker is a satisfactory candidate for treatment 14. […] If the smoker is allowed to participate in the program, the physician will write a prescription of r the needed medications. Then, immediately before the smoker leaves the clinic, a pharmacist fills their prescription for and dispenses to the smoker their supply of nutrition supplements and mild relaxants 16. The next day, day two, the smoker has the first BMS 18. Then on day three the smoker comes back to the clinic and receives the first injection of corticotrophins 20 from the physician. This is the time and place the smoker gives up smoking 22. On day five the smoker participates in a second BMS 24. On day seven, the smoker returns to receive the second injection of corticotrophins 26 from the physician. On day fourteen the smoker, now presumably a former smoker, returns for the last BMS 28. […]

Substance: Adrenocorticotrophin hormone
- time after first administration at which the effect starts to wear off / duration of nicotine craving relief ([1]; listed as Corticotrophins): fifty and one hundred
- time after first administration at which the effect starts to wear off / duration of nicotine craving relief ([1]; listed as corticotrophins): About seventy two
- effect on craving for nicotine ([1]; given to smokers intramuscularly): dramatically reduce the craving for nicotine
- patients who start smoking again ([1]; one administration (Bourne treatment), after about thirty days): thirty to sixty
- duration of reduced cravings for nicotine after one administration ([1]; one administration (Bourne treatment)): thirty
- smoking cessation outcome ([2]; about 250 pounds, three packs a day, one injection of 160 units with counseling and nutritional supplements, no second injection): ceased smoking permanently
- smoking cessation outcome ([2]; comparative example, about 170 pounds, over one pack a day, one injection of 160 units, no appropriate counseling): resumed smoking
